Non-standard residues stand in square brackets, D forms with d. No end group written: not given here. pY = N[C@@H](Cc1ccc(OP(=O)(O)O)cc1)C(=O)O
What was measured:
[1] = system: Ink4a/Arf-/- astrocytes; assay: Drug sensitivity assay, cell viability by WST-1; type: cell-based, mouse; conditions: 72 hours
Text: Mouse Astrocytes. Ink4a/Arf^−/−1 and Pten^loxP/loxP 2 mice were obtained from the NCI mouse depository and intercrossed to generate described genotypes. Primary astrocytes were isolated from the neocortex of 4 day old pups, using standard astrocyte isolation culture conditions (Bachoo et al 2002). Conditional deletion of Pten^loxP/loxP was accomplished by infecting astrocyte cultures with adenovirus expressing Cre recombinase under the CMV promoter (Gene TransferVector Core, University of Iowa, Iowa City, Iowa). Effective Pten deletion was verified by western blot. EGFRvIII was expressed in these cells by retroviral infection as described previously (Bachoo et al 2002). (Reference: Bachoo, R. M. et al. Epidermal growth factor receptor and Ink4a/Arf: convergent mechanisms governing terminal differentiation and transformation along the neural stem cell to astrocyte axis. Cancer Cell 1, 269-77 (2002)).
Drug sensitivity assays. Cells were plated at 1000 cells/well in 96 well plates and allowed to adhere for four hours prior to addition of Erlotinib and/or Dasatinib or solvent (DMSO) control. Cells were maintained in 5% serum during drug treatments and cell viability was measured using WST-1 assay (Clontech) following 72 hours exposure to drug.
Statistical analysis. For quantitation and analysis of immunohistochemistry data, see above. For analysis of drug sensitivity data, 2-way ANOVA was performed using the KaleidaGraph program (Synergy Software).

[2] = system: Ph+ leukemia cells which express wt and mutated BCR-ABL; conditions: mouse, in vivo; cited from earlier work
[3] = biological target: Lyn (Homo sapiens, UniProt P07948); conditions: cited from earlier work
Lyn, sequence (P07948 whole entry, species assumed): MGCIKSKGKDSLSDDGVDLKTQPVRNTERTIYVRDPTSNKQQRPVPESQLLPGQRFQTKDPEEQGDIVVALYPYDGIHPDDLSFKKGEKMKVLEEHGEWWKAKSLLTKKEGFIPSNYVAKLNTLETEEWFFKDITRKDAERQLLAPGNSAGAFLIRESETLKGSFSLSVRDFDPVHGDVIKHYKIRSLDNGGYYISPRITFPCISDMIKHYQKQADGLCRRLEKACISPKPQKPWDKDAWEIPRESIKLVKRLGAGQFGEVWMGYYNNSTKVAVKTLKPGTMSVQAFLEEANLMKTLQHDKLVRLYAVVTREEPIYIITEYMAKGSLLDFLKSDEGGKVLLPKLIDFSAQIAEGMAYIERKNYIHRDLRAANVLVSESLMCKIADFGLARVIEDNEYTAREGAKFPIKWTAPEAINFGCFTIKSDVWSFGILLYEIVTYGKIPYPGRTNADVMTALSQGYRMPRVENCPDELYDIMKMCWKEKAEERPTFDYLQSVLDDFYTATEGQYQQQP

[4] = in vivo; cited from earlier work
[5] = system: anti-pY240 PTEN antibody; assay: Peptide competition of anti-pY240 immunostaining; type: binding; conditions: tissue sections from human GBM with wild type PTEN
Text: Immunohistochemistry: Tissue sections were cut from blocks of formalin-fixed paraffin tumor tissue from glioblastoma patients treated at UCLA with the EGFR kinase inhibitors (erlotinib or gefitinib), including a subset of patients previously described^2. Tumor specimens were obtained according to a protocol approved by the institutional review board of UCLA. Pre-treatment tumor tissue was examined for 19 patients; post-treatment tissue was examined from 8 patients, including 7 patients for whom pre- and post-treatment tissue was available. […]

[6] = system: GBM39 cells; assay: PTEN Y240 phosphorylation in GBM39 glioma cells, western blot; type: cell-based, human; conditions: pervanadate 100 μM for 15 minutes
Experimental: Mice were sacrificed by CO2 inhalation followed by cervical dislocation, according to institutional guidelines. Subcutaneous tumors were removed and tumor tissue was minced into 0.1-0.5 mm^3 chunks in a 60 mm dish with 5 ml of freshly prepared, filter-sterilized digestion solution (12,500 units of Collagenase Type 2, 12,500 units of Collagenase Type 4, 20 mL DMEM (Serum Free), 20 uL of 1 mg/mL DNAase I). Tissue was placed into a sterile 15 ml specimen cup with an additional 10 ml of digestion solution and shaken (150 rpm) at 37 C for 3 hours before filtration through a 70/40 um filter. After centrifugation at 1000 rpm for 3 minutes, the supernatant was discarded. The pellet was resuspended in 1 ml of ACK buffer (150 mM NH4Cl, 10 mM KHCO3, 0.1 mM Na2EDTA, adjusted to pH 7.2-7.4 with 1N HCl) and incubated at room temperature for 3 minutes to lyse red blood cells. Cells were pelleted by centrifugation at 1000 rpm for 3 minutes and resuspended in culture medium (DMEM containing 10% fetal bovine serum plus L-glutamine and penicillin/streptomycin). Cell viability was determined by trypan blue exclusion and cells were plated at a density of approx 10^6 cells per 100 mm culture dish. Cells were maintained under standard cell culture conditions (37 C, 5% CO2 in a humidified incubator) and all experiments were conducted in cells prior to p4. […]

Molecule: C#Cc1cccc(Nc2ncnc3cc(OCCOC)c(OCCOC)cc23)c1 [Erlotinib]
- sensitivity to Erlotinib (cell viability) ([1]; EGFRvIII PTEN-null astrocytes reconstituted with PTEN Y240F mutant): significantly sensitized these cells to sub-micromolar doses
- sensitivity to Erlotinib (cell viability) ([1]; EGFRvIII astrocytes reconstituted with WT PTEN): resistant to clinically achievable doses
- sensitivity to Erlotinib (cell viability) ([1]; PTEN-null astrocytes expressing EGFRvIII): resistant to clinically achievable doses
- sensitivity to Erlotinib (cell viability) ([1]; astrocytes expressing WT PTEN, with versus without EGFRvIII): sensitizes astrocytes expressing WT PTEN to Erlotinib

Molecule: Cc1ccc(NC(=O)c2ccc(CN3CC[C@H](N(C)C)C3)c(C(F)(F)F)c2)cc1Nc1nccc(-c2cncnc2)n1 [INNO-406]
- growth of Ph+ leukemia cells in murine CNS [2]: does inhibit growth
- Lyn inhibition versus phosphorylation of Src, Blk or Yes [3]: inhibits Lyn without affecting the phosphorylation of Src-family kinases Src, Blk or Yes
- concentrations in the CNS relative to those in plasma [4]: about 10%

Molecule: FMY[243.03]FEFPQPLPVC[160.03]GDIK: Phosphorylated PTEN Y240 peptide that competes away antibody staining (FM[pY]FEFPQPLPVCGDIK; not fully specified (residue 13); printed as FMY[243.03]FEFPQPLPVC[160.03]GDIK; also: modified cysteine C13 (C[160.03]))
- competition of antibody staining in immunostaining [5]: competes away antibody staining

Molecule: pervanadate
- induction of Y240 phosphorylation [6]: substantial increase in Y240 phosphorylation
